This is an account of results in patent US11667630B2, “Nitrogen-containing 6-membered cyclic compound” (Asahi Kasei Pharma Corporation, priority 2017, dated 2023).

In one assay the target is T1, human EP2 receptor (Homo sapiens, UniProt P43116).
T1 construct: purchased Merck Millipore HTS185M
The assay can be described thus: Receptor binding test, [3H]PGE2 binding inhibition, EP2. To be noted: [3H]PGE2 2.56 nmol/L, membrane fraction HTS185M, 25°C 60 minutes. Here is the method:
(§1) In order to evaluate selectivity to each EP receptor subtype, [^3H]PGE2 binding-inhibition activities of test compounds for cell membranes on which human EP2, human EP3, and human EP4 receptors were stably expressed were measured.
(§2) As the membrane fractions of the prostaglandin E receptors EP2, EP3, and EP4, 10.0 μg protein/tube each of HTS185M, HTS092M, and HTS142M of Merck Millipore were used, respectively. Each membrane fraction was incubated with a reaction mixture (250 μL/tube) containing a test compound and [3H]PGE2 at 25° C. for 60 minutes. […] After the reaction, the membrane fraction was collected on filter paper by using a cell harvester, the filter paper was transferred to a measurement vial, and the measurement was performed on a liquid scintillation counter.
(§3) The nonspecific binding was determined as binding observed in the presence of excess amount (10 μM) of unlabeled PGE2. The measurement of the [3H]PGE2 binding-inhibiting activity of a test compound was performed by adding the test compound at various concentrations. The following buffers were used for the reaction.
Buffer for EP2: 50 mmol/L HEPES-NaOH (pH 7.4) containing 5 mmol/L MgCl2, 1 mmol/L CaCl2), and 0.2% BSA

Another assay has as its system rat femur. In words: Neo-osteogenesis action in rat femur. To be noted: female SD rats, one week after administration. The class given is in vivo. Here is the method: Eight weeks old female SD rats (Charles River Japan) were fixed in the side lying position under triple anesthesia (medetomidine hydrochloride, midazolam, and butorphanol tartrate). After hair of the left femoral region was shaved with a hair clipper, and disinfection treatment was performed with 70% ethanol, an in situ-solidified gel solution of a test compound, specifically, a test compound dissolved in poly(lactic-co-glycolic acid) (RESOMER RG502H, produced by Evonik Industries)/poly(lactic-co-glycolic acid)-polyethylene glycol block copolymer (5050 DLG mPEG 5000, produced by Lakeshore Biomaterials)/N-methyl-2-pyrroridone (produced by Wako) (weight ratio 47%/3%/50%), was filled in a 1-mL syringe, a 21G injection needle was attached to the syringe, and the needle was transdermally stabbed from the quadriceps to the periosteum near the center of the femoral diaphyseal. Then, 100 μg as the amount of the test compound, or 50 μL as the administration volume of the solution was injected between the quadriceps and the periosteum, and the injection needle was drawn out. To the rats of the control group, the aforementioned in situ-solidified gel solution alone was administered. One week after the administration of the drug solution, the triple anesthesia was given to the animals, and they were fixed in the supine position, and euthanized by bleeding. […], circumferential tissues such as muscles were removed, the bone mineral content of the whole femur was measured by using a bone mineral analyzer DCS-600EX (produced by ALOKA), then it was divided into three portions along the long axis, and the bone mineral content of the center part (diaphysis) was evaluated. The test was performed with the groups each consisting of 6 animals.

Assay [1] deals with dog lumbar vertebrae posterolateral fixation model. The assay can be described thus: Bone union-promoting action in dog lumbar vertebrae posterolateral fixation model. The following applies: twelve weeks after operation; for Continuity score based on soft X-ray image (Mean ± SD): grades 0 to 3 per Table 9; for Manual evaluation of bone union: beagle dogs, microspheres containing compound of Example 23 mixed with autologous bone graft, animals with union/5. The class given is in vivo. Here is the method: In order to investigate a bone union-promoting action in the spinal fusion of the compounds of the present invention, influence of mixing of microspheres containing a test compound at the time of autologous bone grafting was confirmed by using a lumbar vertebrae posterolateral fixation model.
Twelve to thirteen months old male beagle dogs ([…] LABES) were anesthetized by administration of a 1:1 mixture of ketamine hydrochloride (Ketalar 500 mg, Daiichi Sankyo Propharma Co., Ltd.) and xylazine (Selactar 2% Injection, Bayer Yakuhin, Ltd.) at a dose of about 0.5 mL/kg, and Japanese Pharmacopoeia-listed isoflurane (Elucaine, produced by Mylan Pharmaceutical) was inhaled with an inhaler IMPAC6 (VetEquip Inc.) to maintain the anesthesia. The animal was fixed in the prone position, hair of a wide area over the right and left spina iliaca posterior superiors, part around iliac crest, and lower back was shaved, and disinfection treatment was performed with povidone-iodine listed in Japanese Pharmacopoeia (Isodine solution for animals, 20 mg of povidone-iodine listed in Japanese Pharmacopoeia in 1 mL, Meiji Seika Pharma) and ethanol for disinfection (Wako Pure Chemical Industries). […] About 2 g each of the right and left iliums were extracted by using a rongeur and bone scissors, and astriction was performed. The collected ilium, from which the soft tissues were removed, was finely broken with bone scissors, and thereby made into chips of 1 mm size to obtain 2 g each of bone grafts for right and left. Then, the skin was dissected along the spinous processes of lower back with a scalpel, the left and right lumbodorsal fascias were dissected, and then the transverse processes of the fourth and fifth lumbar vertebrae were exposed while the multifidus muscle and longissimus muscle were separated and dissected between the fascias thereof. The soft tissues adhering to the transverse processes were removed, and then decortication of the cortical bone on the surface of the transverse processes was performed with an electric drill (OS-40MV2, Osada Electric Co., Ltd.) to prepare a bone graft bed. The bone graft (2 g) prepared above was sufficiently mixed with a microsphere suspension obtained by suspending microspheres containing a test compound (compound of Example 23) in an amount corresponding to 10, 30, or 100 μg of the test compound (prepared according to the method of Preparation Example 1) in 800 μL of a CMC solution, embedded and grafted on the transverse processes of the fourth and fifth lumbar vertebrae, and the bone graft bed between the transverse processes. After the autologous bone grafting, the lumbodorsal fascia, subcutaneous tissues, and skin were sutured, and the surgical site was disinfected. Twelve weeks after the operation, the animals were euthanized with overdose (30 mg/kg) of sodium pentobarbiturate (Somnopentyl, Kyoritsuseiyaku Corporation), and then the lumbar vertebrae were extracted. Bone union was judged by manually confirming movability of the fourth and fifth lumbar vertebrae (manual palpation) under blinding, and soft X-ray images were obtained from one direction by using Softex M-60 (Softex). The test was performed with the groups each consisting of 5 animals.

Another assay concerns the target human EP4 receptor (Homo sapiens, UniProt P35408). In words: Receptor binding test, [3H]PGE2 binding inhibition, EP4. More on the design: purchased Merck Millipore HTS142M. The following applies: [3H]PGE2 1.24 nmol/L, membrane fraction HTS142M, 25°C 60 minutes. Here is the method:
as §1, §2, §3
Buffer for EP4: 50 mmol/L HEPES-NaOH (pH7.4) containing 5 mmol/L MgCl2, 1 mmol/L CaCl2), and 0.2% BSA

Some results are limits rather than exact numbers.

Sequence of human EP4 receptor (P35408 whole entry): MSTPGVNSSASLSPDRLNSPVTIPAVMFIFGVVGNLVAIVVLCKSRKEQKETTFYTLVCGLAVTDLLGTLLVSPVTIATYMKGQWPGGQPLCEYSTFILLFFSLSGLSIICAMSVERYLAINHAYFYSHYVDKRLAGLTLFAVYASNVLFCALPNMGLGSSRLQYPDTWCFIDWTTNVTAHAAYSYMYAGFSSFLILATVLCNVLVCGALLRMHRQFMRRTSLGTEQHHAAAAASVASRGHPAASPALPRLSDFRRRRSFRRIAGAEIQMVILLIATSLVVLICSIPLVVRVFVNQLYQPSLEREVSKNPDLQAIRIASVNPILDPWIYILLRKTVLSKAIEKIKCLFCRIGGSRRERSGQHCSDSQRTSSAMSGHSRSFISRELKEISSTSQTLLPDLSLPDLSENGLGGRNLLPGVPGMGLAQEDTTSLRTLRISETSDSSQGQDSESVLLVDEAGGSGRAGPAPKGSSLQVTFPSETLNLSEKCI
T1 sequence (P43116 whole entry): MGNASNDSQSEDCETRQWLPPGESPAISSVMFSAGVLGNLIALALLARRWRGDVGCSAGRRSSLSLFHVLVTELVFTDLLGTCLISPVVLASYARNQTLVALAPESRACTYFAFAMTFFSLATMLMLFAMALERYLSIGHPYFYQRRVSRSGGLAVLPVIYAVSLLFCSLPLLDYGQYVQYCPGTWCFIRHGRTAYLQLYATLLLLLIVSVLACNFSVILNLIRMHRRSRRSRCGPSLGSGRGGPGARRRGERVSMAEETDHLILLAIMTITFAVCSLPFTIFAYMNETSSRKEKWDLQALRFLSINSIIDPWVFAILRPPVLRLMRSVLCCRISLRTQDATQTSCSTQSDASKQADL

In general, IC50 refers to the concentration that gives 50% inhibition. Lower therefore signals greater potency in that assay. For `O=C(O)c1ccc(CCN2C(=O)SCCN2CC[C@@H](O)Cc2cccc(C#Cc3ccsc3)c2)s1` [Example 23, (S)-5-(2-(4-(3-Hydroxy-4-(3-(thiophen-3-ylethynyl)phenyl)butyl)-2-oxo-1,3,4-thiadiazinan-3-yl)ethyl)thiophene-2-carboxylic acid], the IC50 at human EP2 receptor was over 1000 nM; on human EP4 receptor, 4.35 nM. Also, the “Bone mineral content of femur 1/3 center region (mg) Left femur (administered with compound)” value in the assay with rat femur (100 μg test compound in in situ-solidified gel solution injected between quadriceps and periosteum) is listed as 82.7 ± 6.7 mg. Besides, the “Bone mineral content of femur 1/3 center region (mg) Right femur (no administration of compound)” value with rat femur (contralateral femur, 100 μg test compound given at left femur) was 58.9 ± 2.9 mg. Moreover, the “Continuity score based on soft X-ray image (Mean ± SD)” value in assay [1] (10 μg/site) is 2.4 ± 0.5; in assay [1] (30 μg/site), 2.6 ± 0.5; in assay [1] (100 μg/site) it was 2.8 ± 0.4. In addition, the “Manual evaluation of bone union” value in assay [1] (10 μg/site), in assay [1] (30 μg/site) and in assay [1] (100 μg/site) was 4/5 each time.
